One test deals with HT1080 cells. Nature of the test: Matrigel invasion assay (modified Boiden-chamber method). It counts as cell-based, human. The conditions noted are these: HT1080 cells transfected with the expression plasmid (with GFP), 14 hrs (FIG. 15). The protocol: Matrigel Invasion Chambers were prepared according to the manufacturer's instructions (Becton Dickinson Labware, MA, USA) by coating, with […] of Matrigel, the 8 μm-pore sized membrane of the culture inserts for 24-well plates (Falcon). A 0.5 ml aliquot of transfected HT1080 cell suspension at 0.1×10^5/ml was seeded on the upper chamber and incubated at 37° C. in a humidified chamber. Hepatocyte growth factor (Toyobo; 10 ng/ml) was added to the lower chamber as a chemo-attractant. After 14 hrs of incubation, cells remaining on the upper surface of the membrane were removed, and cells on the lower surface were fixed with 3% para-formaldehyde in PBS. Green fluorescent protein (GFP)-positive cells that had invaded to the lower, surface were counted using fluorescence microscopy (×40).
Cells were transiently transfected with a vector for MT1PEX-F, together with an expression vector for green fluorescent protein (GFP), and GFP-positive invading cells were counted under fluorescence microscopy. HT1080 cells were co-transfected with expression vectors for MT1PEX-F and GFP, or with an expression vector for GFP alone. The cells were assayed for Matrigel invasion as described below. The modified Boiden-chamber method was carried out. […]
TIMP-2 at 0.5 μg/ml was added to the upper and lower chambers. GFP-positive cells on the surface of the lower chamber were counted using fluorescence microscopy. […]

In another test the target is T1, proMMP-2 (Homo sapiens, UniProt P08253).
T1 construct: made in house; host or cells: HighFive insect cells infected with recombinant baculovirus; purified from culture supernatant
T1 sequence (P08253 30-660 limits assumed): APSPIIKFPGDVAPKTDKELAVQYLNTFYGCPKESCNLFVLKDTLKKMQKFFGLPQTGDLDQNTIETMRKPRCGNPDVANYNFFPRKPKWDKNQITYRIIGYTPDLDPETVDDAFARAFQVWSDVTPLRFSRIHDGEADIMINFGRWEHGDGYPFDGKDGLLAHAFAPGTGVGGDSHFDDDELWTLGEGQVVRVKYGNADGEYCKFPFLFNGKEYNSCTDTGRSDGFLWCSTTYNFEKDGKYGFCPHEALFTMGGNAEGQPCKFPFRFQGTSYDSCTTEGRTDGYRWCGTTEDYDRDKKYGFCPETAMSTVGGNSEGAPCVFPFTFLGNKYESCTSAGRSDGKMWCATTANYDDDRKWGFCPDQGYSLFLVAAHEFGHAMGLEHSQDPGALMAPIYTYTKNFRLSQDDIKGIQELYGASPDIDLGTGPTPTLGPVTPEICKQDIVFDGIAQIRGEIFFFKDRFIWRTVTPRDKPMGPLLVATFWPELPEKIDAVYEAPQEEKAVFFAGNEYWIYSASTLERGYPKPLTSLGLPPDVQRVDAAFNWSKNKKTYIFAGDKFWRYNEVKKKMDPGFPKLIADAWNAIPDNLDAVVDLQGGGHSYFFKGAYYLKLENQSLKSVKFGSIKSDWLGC
Nature of the test: ProMMP-2 binding assay on transfected COS1 cells. The conditions noted are these: COS1 cells co-transfected with MT1-MMP (FIG. 29). It counts as cell-based. On the procedure:
Transfected COS1 cells were cultured in a 24-well plate (0.2×10^4/well). Forty-eight hours after transfection, the cells were washed three times with serum-free DMEM, and incubated with purified proMMP-2 (2 μg/ml) in the serum-free DMEM at 25° C. for 1 hr. The cells were then washed three times with serum-free DMEM containing 5% dimethyl sulfoxide (DMSO) to remove free proMMP-2, and lysed in 50 μl of a non-reducing SDS-loading buffer. MMP-2 bound to the cells was analyzed by gelatin zymography.

For “MT1PEX-F: Catalytic domain-deleted FLAG-tagged MT1-MMP (Δ Tyr112-Pro312), expressed by transfection”, the “suppression of Matrigel invasion” value with HT1080 cells worked out at 70%. Further, the “effect on proMMP-2 binding to the cell surface” value in the test with proMMP-2 is “not affected”.

The values are drawn from patent US20040120954A1, “Regulation of mt1-mmp activity” (priority 2000, published 2004).
